According to patent publication US6818426B2 (Daicel Chemical Industries, Ltd., priority 2000, dated 2004):
Like-named read-outs stand apart in the source and are kept apart here.

Assays:
[1] = system: recombinant (R)-2,3-butanediol dehydrogenase, HB101 (pSE-PAD1) cell extract; experiment: Substrate specificity of recombinant enzyme, oxidation reaction; format: biochemical, Pichia angusta; details: for HB101 (pSE-PAD1) Relative activity: glycerol = 100%
Description: The quantification of polypeptide is carried out by a dye-binding method using a protein assay kit from BioRad.
(§1) The bacterial cells were collected by centrifugal separation and then suspended in 100 mM potassium phosphate buffer (pH 8.0) containing 0.02% 2-mercaptoethanol; the bacterial cells were lysed by the treatment with a closed sonic chamber device UCD-200TM (Cosmo Bio) for 4 minutes. The bacterial cell lysate was separated by centrifugation and the resulting supernatant was recovered as a bacterial cell extract.

[2] = system: E. coli HB101 cell-free extract prepared in the absence of plasmid; format: biochemical
Description: as §1

[3] = target: glycerol dehydrogenase produced by Escherichia coli (Escherichia coli W-1485) (Escherichia coli, UniProt P0A9S5); details: J. Biol. Chem., 259:2124-2129, 1984; cited from earlier work
[4] = target: (R)-2,3-butanediol dehydrogenase derived from Saccharomyces cerevisiae (Saccharomyces cerevisiae, UniProt P39714); details: Arch. Microbiol., 154:267-273, 1990; cited from earlier work
[5] = system: (R)-2,3-butanediol dehydrogenase; experiment: Substrate specificity of purified (R)-2,3-butanediol dehydrogenase (dehydrogenation activity); format: biochemical, Pichia angusta; details: substrate 500 mM; glycerol dehydrogenation activity with NAD+ as coenzyme taken as 100; ND: not detectable
Description: The enzyme obtained in Example 1 was allowed to react with various reagents of 500 mM, and then the dehydrogenation activity was assayed.

[6] = system: (R)-2,3-butanediol dehydrogenase; experiment: Behavior of (R)-2,3-butanediol dehydrogenase to reagents (residual glycerol dehydrogenase activity); format: biochemical, Pichia angusta; details: for Inhibition of the enzyme by reagent (in words): treated at 30° C. for 10 minutes
Description: After treated with various reagents at 30° C. for 10 minutes, glycerol dehydrogenase activity was assayed.

[7] = system: E. coli HB101 cell-free extract prepared in the absence of plasmid; experiment: Host only cell-free extract, reduction reaction; format: biochemical; details: substrate 20 mM
Description: as §1

[8] = system: recombinant (R)-2,3-butanediol dehydrogenase, HB101 (pSE-PAD1) cell extract; experiment: Substrate specificity of recombinant enzyme, reduction reaction; format: biochemical, Pichia angusta; details: substrate 20 mM; for HB101 (pSE-PAD1) Relative activity: dihydroxyacetone = 100%
Description: as §1

[9] = system: (R)-2,3-butanediol dehydrogenase; experiment: Stereoselectivity of purified (R)-2,3-butanediol dehydrogenase; format: biochemical, Pichia angusta
Description: The enzyme obtained in Example 1 was allowed to react with each of the two isomers 1,2-propanediol and 2,3-butanediol (500 mM each).

[10] = system: (R)-2,3-butanediol dehydrogenase derived from Pichia angusta; experiment: Coenzyme usability; format: biochemical; details: NADP+ in oxidation reaction, NADPH in reduction reaction
Description: However, regardless of the usability of NADP^+ and NADPH, an enzyme having the above-mentioned physicochemical properties (1) to (3), preferably (1) to (6), and even more preferably (1) to (9) is included in the present invention.

[11] = oxidation reaction, substrate 100 mM
[12] = reagent 1 mM, 30° C. for 10 minutes, glycerol dehydrogenase activity
[13] = oxidation reaction, substrate 50 mM

glycerol dehydrogenase produced by Escherichia coli (Escherichia coli W-1485), sequence (P0A9S5 whole entry): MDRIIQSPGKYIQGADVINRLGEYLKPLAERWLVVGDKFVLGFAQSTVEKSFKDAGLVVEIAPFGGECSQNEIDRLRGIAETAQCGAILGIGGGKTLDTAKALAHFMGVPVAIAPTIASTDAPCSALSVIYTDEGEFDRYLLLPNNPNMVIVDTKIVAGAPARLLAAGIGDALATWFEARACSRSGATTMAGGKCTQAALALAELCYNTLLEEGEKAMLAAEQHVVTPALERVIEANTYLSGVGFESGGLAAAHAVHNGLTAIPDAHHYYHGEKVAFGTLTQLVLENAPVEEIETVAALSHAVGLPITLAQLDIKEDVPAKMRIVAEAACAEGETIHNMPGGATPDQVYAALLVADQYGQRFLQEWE
(R)-2,3-butanediol dehydrogenase derived from Saccharomyces cerevisiae, sequence (P39714 whole entry): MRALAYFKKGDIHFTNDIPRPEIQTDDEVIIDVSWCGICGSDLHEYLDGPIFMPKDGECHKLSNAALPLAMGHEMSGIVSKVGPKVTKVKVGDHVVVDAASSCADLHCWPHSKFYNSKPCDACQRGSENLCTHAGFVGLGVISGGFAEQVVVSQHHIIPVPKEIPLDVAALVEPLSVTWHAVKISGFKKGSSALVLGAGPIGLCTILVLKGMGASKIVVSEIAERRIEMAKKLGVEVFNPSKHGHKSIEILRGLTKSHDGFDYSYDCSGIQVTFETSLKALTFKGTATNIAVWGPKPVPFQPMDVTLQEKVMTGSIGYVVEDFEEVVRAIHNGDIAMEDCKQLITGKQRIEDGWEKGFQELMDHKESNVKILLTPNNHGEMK

CCC(O)CO (racemic) [(RS)-1,2-butanediol]
HB101 (pSE-PAD1) activity ([1]; substrate 100 mM): 0.200 U/mg | HB101 (pSE-PAD1) Relative activity ([1]; substrate 100 mM): 87.6% | Host only activity [2, 11]: 0.002 U/mg

CC(O)C(C)O (racemic) [DL-2,3-butanediol]
Vmax [3]: 21.2 U/mg protein | dehydrogenase activity [4]: about 20.3 U/mg protein

CCC(O)CO (centres unmarked) [1,2-butanediol]
Relative activity [5]: 130%

CC(O)CO (centres unmarked) [1,2-propanediol]
Relative activity [5]: 700%

CC(O)CCO (centres unmarked) [1,3-butanediol]
Relative activity [5]: 58%

c1ccc(-c2ccccn2)nc1 [2,2′-dipyridyl]
Residual activity [6, 12]: 0% | Inhibition of the enzyme by reagent (in words) [6]: markedly inhibited

CC(O)C(C)O (centres unmarked) [2,3-butanediol]
Relative activity [5]: 3030%

CC(=O)C(C)=O [2,3-butanedion]
Host only activity [7]: 0.018 U/mg | HB101 (pSE-PAD1) activity [8]: 1.906 U/mg | HB101 (pSE-PAD1) Relative activity [8]: 195%

CCC(C)=O [2-butanone]
Host only activity [7]: 0.002 U/mg | HB101 (pSE-PAD1) activity [8]: 0.008 U/mg | HB101 (pSE-PAD1) Relative activity [8]: 0.8%

CC(=O)C(C)O (centres unmarked) [3-hydroxy-2-butanone]
HB101 (pSE-PAD1) activity ([1]; substrate 50 mM): 0.020 U/mg | HB101 (pSE-PAD1) Relative activity ([1]; substrate 50 mM): 8.8% | Host only activity [2, 13]: 0.006 U/mg | Host only activity [7]: 0.009 U/mg | HB101 (pSE-PAD1) activity [8]: 0.696 U/mg | HB101 (pSE-PAD1) Relative activity [8]: 71.2%

CC(=O)CCO [4-hydroxy-2-butanone]
Host only activity [7]: 0.006 U/mg | HB101 (pSE-PAD1) activity [8]: 0.011 U/mg | HB101 (pSE-PAD1) Relative activity [8]: 1.1%

C[C@@H](O)[C@@H](C)O [(2R,3R)-2,3-butanediol]
HB101 (pSE-PAD1) activity ([1]; substrate 50 mM): 1.414 U/mg | HB101 (pSE-PAD1) Relative activity ([1]; substrate 50 mM): 620% | Vmax [3]: 28.0 U/mg protein | Host only activity [2, 13]: 0 U/mg

C[C@H](O)[C@H](C)O [(2S,3S)-2,3-butanediol]
HB101 (pSE-PAD1) activity ([1]; substrate 50 mM): 0.059 U/mg | HB101 (pSE-PAD1) Relative activity ([1]; substrate 50 mM): 26.1% | Host only activity [2, 13]: 0 U/mg

C[C@@H](O)CO [(R)-1,2-propanediol]
HB101 (pSE-PAD1) activity ([1]; substrate 50 mM): 1.077 U/mg | HB101 (pSE-PAD1) Relative activity ([1]; substrate 50 mM): 473% | Relative activity [9]: 2000% | Host only activity [2, 13]: 0 U/mg

C[C@@H](O)CCO [(R)-1,3-butanediol]
HB101 (pSE-PAD1) activity ([1]; substrate 50 mM): 0.259 U/mg | HB101 (pSE-PAD1) Relative activity ([1]; substrate 50 mM): 114% | Host only activity [2, 13]: 0 U/mg

C[C@@H](O)CO [(R)-2,3-propanediol]
Relative activity [9]: 6100%

OC[C@@H](O)CCl [(R)-3-chloro-1,2-propanediol]
HB101 (pSE-PAD1) activity ([1]; substrate 50 mM): 0.002 U/mg | HB101 (pSE-PAD1) Relative activity ([1]; substrate 50 mM): 0.9% | Host only activity [2, 13]: 0 U/mg

C[C@H](O)CO [(S)-1,2-propanediol]
HB101 (pSE-PAD1) activity ([1]; substrate 50 mM): 0.246 U/mg | HB101 (pSE-PAD1) Relative activity ([1]; substrate 50 mM): 108% | Relative activity [9]: 400% | Host only activity [2, 13]: 0 U/mg

C[C@H](O)CCO [(S)-1,3-butanediol]
HB101 (pSE-PAD1) activity ([1]; substrate 50 mM): 0.042 U/mg | HB101 (pSE-PAD1) Relative activity ([1]; substrate 50 mM): 18.3% | Host only activity [2, 13]: 0 U/mg

C[C@H](O)CO [(S)-2,3-propanediol]
Relative activity [9]: 160%

OC[C@H](O)CCl [(S)-3-chloro-1,2-propanediol]
HB101 (pSE-PAD1) activity ([1]; substrate 50 mM): 0.057 U/mg | HB101 (pSE-PAD1) Relative activity ([1]; substrate 50 mM): 24.8% | Host only activity [2, 13]: 0.001 U/mg

O=C(O)c1cc(SSc2ccc([N+](=O)[O-])c(C(=O)O)c2)ccc1[N+](=O)[O-] [DTNB, 5,5′-dithiobis (2-nitrobenzoic acid)]
Residual activity [6, 12]: 59%

O=C(O)CN(CCN(CC(=O)O)CC(=O)O)CC(=O)O [EDTA, ethylenediaminetetraacetic acid]
Residual activity [6, 12]: 93% | Inhibition of the enzyme by reagent (in words) [6]: not

OCC(O)CO [Glycerol]
HB101 (pSE-PAD1) activity ([1]; substrate 100 mM): 0.228 U/mg | HB101 (pSE-PAD1) Relative activity ([1]; substrate 100 mM): 100% | Relative activity ([9]; substrate 500 mM, activity to glycerol taken as 100): 100% | Host only activity [2, 11]: 0 U/mg | Relative activity [5]: 100%

CC(=O)CO [Hydroxyacetone]
Host only activity [7]: 0 U/mg | HB101 (pSE-PAD1) activity [8]: 0.364 U/mg | HB101 (pSE-PAD1) Relative activity [8]: 37.2%

CC(O)C(C)O (stereo not drawn) [Meso-2,3-butanediol]
HB101 (pSE-PAD1) activity ([1]; substrate 50 mM): 1.163 U/mg | HB101 (pSE-PAD1) Relative activity ([1]; substrate 50 mM): 509% | Host only activity [2, 13]: 0 U/mg

NC(=O)C1=CN([C@@H]2O[C@H](COP(=O)(O)OP(=O)(O)OC[C@H]3O[C@@H](n4cnc5c(N)ncnc54)[C@H](OP(=O)(O)O)[C@@H]3O)[C@@H](O)[C@H]2O)C=CC1 [NADPH]
Usability as a coenzyme (in words) [10]: substantially impossible

NC(=O)c1ccc[n+]([C@@H]2O[C@H](COP(=O)([O-])OP(=O)(O)OC[C@H]3O[C@@H](n4cnc5c(N)ncnc54)[C@H](OP(=O)(O)O)[C@@H]3O)[C@@H](O)[C@H]2O)c1 [NADP^+]
Usability as a coenzyme (in words) [10]: substantially impossible

O=C(O)c1cc[c]([Hg][Cl])cc1 [PCMB, p-chloromercuribenzoic acid]
Residual activity ([6]; reagent 0.1 mM, 30° C. for 10 minutes, glycerol dehydrogenase activity): 0% | Inhibition of the enzyme by reagent (in words) [6]: markedly inhibited

NNc1ccccc1 [Phenylhydrazine]
Residual activity [6, 12]: 110%

[Ba+2].[Cl-].[Cl-] [barium chloride]
Residual activity [6]: 112%

[Ca+2].[Cl-].[Cl-] [calcium chloride]
Residual activity [6]: 105%

[Cl][Co][Cl] [cobalt chloride]
Residual activity [6, 12]: 102%

[Cl][Cu][Cl] [copper chloride]
Residual activity [6, 12]: 0% | Inhibition of the enzyme by reagent (in words) [6]: markedly inhibited

O=C(O)CI [iodoacetic acid]
Residual activity [6]: 91%

[Cl][Fe][Cl] [iron (II) chloride]
Residual activity [6, 12]: 163%

[Cl][Fe]([Cl])[Cl] [iron (III) chloride]
Residual activity [6, 12]: 0% | Inhibition of the enzyme by reagent (in words) [6]: markedly inhibited

[Cl-].[Li+] [lithium chloride]
Residual activity [6, 12]: 101%

[Cl-].[Cl-].[Mg+2] [magnesium chloride]
Residual activity [6]: 105%

[Cl][Hg][Cl] [mercury chloride]
Residual activity [6, 12]: 0% | Inhibition of the enzyme by reagent (in words) [6]: markedly inhibited

[Cl][Ni][Cl] [nickel chloride]
Residual activity [6]: 99%

c1cnc2c(c1)ccc1cccnc12 [o-phenanthroline]
Residual activity [6, 12]: 0% | Inhibition of the enzyme by reagent (in words) [6]: markedly inhibited

[Cl-].[Cl-].[Zn+2] [zinc chloride]
Residual activity [6]: 113%

(R)-1-amino-2-propanol
HB101 (pSE-PAD1) activity ([1]; substrate 50 mM): 0.051 U/mg | HB101 (pSE-PAD1) Relative activity ([1]; substrate 50 mM): 22.2% | Host only activity [2]: 0.007 U/mg

(R)-2-butanol
HB101 (pSE-PAD1) activity ([1]; substrate 50 mM): 0.022 U/mg | HB101 (pSE-PAD1) Relative activity ([1]; substrate 50 mM): 9.6% | Host only activity [2]: 0 U/mg

(S)-1-amino-2-propanol
HB101 (pSE-PAD1) activity ([1]; substrate 50 mM): 0.018 U/mg | HB101 (pSE-PAD1) Relative activity ([1]; substrate 50 mM): 8.0% | Host only activity [2]: 0.007 U/mg

(S)-2-butanol
HB101 (pSE-PAD1) activity ([1]; substrate 50 mM): 0.024 U/mg | HB101 (pSE-PAD1) Relative activity ([1]; substrate 50 mM): 10.7% | Host only activity [2]: 0 U/mg

manganese chloride
Residual activity [6]: 105%
